Results: publication PMC6017932, “Synthesis of Selenium-Quinone Hybrid Compounds with Potential Antitumor Activity via Rh-Catalyzed C-H Bond Activation and Click Reactions” (Molecules : A Journal of Synthetic Chemistry and Natural …, 2017)
Read-outs that look alike come from different tables or passages of the source.

How the values were obtained:
[1] = system: HL-60 (human promyelocytic leukemia cells); experiment: MTT cytotoxicity, HL-60 cells; format: cell-based; details: three independent experiments, read-out: Cytotoxic activity IC50 (95% CI) HL-60
Description: (§1) Compounds were evaluated for antitumor activity in cell culture in vitro using several human cancer cell lines obtained from the National Cancer Institute, NCI (Bethesda, MD, USA). […] The L929 cells were cultivated under standard conditions in DMEM with Earle’s salts. […] At the end of the incubation time (72 h), the plates were centrifuged and the medium was replaced by fresh medium (200 μL) containing 0.5 mg/mL MTT. After 3 h, the MTT formazan product was dissolved in DMSO (150 μL) and the absorbance was measured using a multiplate reader (Spectra Count, Packard, ON, Canada). The impact of compounds on cell proliferation was quantified as the percentage of control absorbance of the reduced dye at 550 nm. All cell culture based studies were performed in triplicate. All cells were mycoplasma-free.

[2] = system: HCT-116 (human colon carcinoma cells); experiment: MTT cytotoxicity, HCT-116 cells; format: cell-based; details: three independent experiments, read-out: Cytotoxic activity IC50 (95% CI) HCT-116
Description: as §1

[3] = system: SF295 (human glioblastoma cells); experiment: MTT cytotoxicity, SF295 cells; format: cell-based; details: three independent experiments, read-out: Cytotoxic activity IC50 (95% CI) SF295
Description: as §1

[4] = system: NCIH-460 (human lung cells); experiment: MTT cytotoxicity, NCIH-460 cells; format: cell-based; details: three independent experiments, read-out: Cytotoxic activity IC50 (95% CI) NCIH-460
Description: as §1

[5] = system: L929 (murine fibroblasts normal cells); experiment: MTT cytotoxicity, L929 normal cells; format: cell-based, mouse; details: normal cell line, 72 h exposure, three independent experiments, read-out: Cytotoxic activity IC50 (95% CI) L929
Description: as §1

[6] = system: PC3 (human prostate cancer cells); experiment: MTT cytotoxicity, PC3 cells; format: cell-based; details: three independent experiments, read-out: Cytotoxic activity IC50 (95% CI) PC3
Description: as §1

[7] = MTT cytotoxicity, L929 normal cells; format: cell-based, mouse; details: mouse, normal cell line, 72 h exposure, three independent experiments, read-out: Cytotoxic activity IC50 (95% CI) L929
Description: as §1

[8] = Homo sapiens, HL-60, 72 h exposure
[9] = Homo sapiens, HCT-116, 72 h exposure
[10] = Homo sapiens, SF-295, 72 h exposure
[11] = Homo sapiens, NCI-H460, 72 h exposure
[12] = Homo sapiens, PC-3, 72 h exposure

In the case of “4-(4-((Benzylselanyl)methyl)-1H-1,2,3-triazol-1-yl)-3-bromo-2,2-dimethyl-3,4-dihydro-2H-benzo[h]-chromene-5,6-dione [Compound 20]”, the IC50 ([1]; 72 h exposure) is reported as 1 µM, the IC50 ([2]; 72 h exposure) is reported as 2.03 µM and the IC50 ([3]; 72 h exposure) is reported as 3.12 µM. It also gave an IC50 ([4]; 72 h exposure) of 3.26 µM and an IC50 [5] of 0.61 µM.
In the case of CC1(C)OC2=C(C(=O)C(=O)c3ccccc32)C(n2cc(CSc3ccccc3)nn2)C1Br (stereo not drawn) [Compound 24, 3-Bromo-2,2-dimethyl-4-(4-((phenylthio)methyl)-1H-1,2,3-triazol-1-yl)-3,4-dihydro-2H-benzo[h]chromene-5,6-dione], the IC50 [1, 8] is reported as 1.94 µM, the IC50 [2, 9] is reported as 4.38 µM and the IC50 [3, 10] is reported as 2.34 µM. It also gave an IC50 [4, 11] of 4.91 µM, an IC50 [6, 12] of 2.1 µM and an IC50 at 72 h [7] of 0.84 µM. It also gave a melting point of 119.5 to 121.4 °C.
Work on O=C1C=C([Se]c2ccc(Cl)cc2)C(=O)c2ccccc21 [Compound 4, 2-((4-Chlorophenyl)selanyl)naphthalene-1,4-dione] yielded an IC50 [1, 8] of 2.25 µM, an IC50 [2, 9] greater than 10 µM and an IC50 [3, 10] greater than 10 µM. For the same compound, the IC50 [4, 11] was greater than 10 µM, the IC50 [6, 12] was greater than 10 µM and the IC50 at 72 h [7] was greater than 10 µM. The melting point was 154.8 to 155.7 °C.
O=C1C=C([Se]c2ccc(F)cc2)C(=O)c2ccccc21 [Compound 5, 2-((4-Fluorophenyl)selanyl)naphthalene-1,4-dione] gave an IC50 [1, 8] of 2.16 µM, an IC50 [2, 9] greater than 10 µM and an IC50 [3, 10] greater than 10 µM. It also gave an IC50 [4, 11] greater than 10 µM, an IC50 [6, 12] greater than 10 µM and an IC50 at 72 h [7] greater than 10 µM. For the same compound, the melting point was 139.2 to 139.9 °C.
Work on COC1=C(Cn2cc(-c3ccc([N+](=O)[O-])cc3)nn2)C(=O)c2ccccc2C1=O [Compound 10, 2-Methoxy-3-((4-(4-nitrophenyl)-1H-1,2,3-triazol-1-yl)methyl)naphthalene-1,4-dione] yielded an IC50 [1, 8] greater than 10 µM, an IC50 [2, 9] greater than 10 µM and an IC50 [3, 10] greater than 10 µM. For the same compound, the IC50 [4, 11] was greater than 10 µM, the IC50 [6, 12] was greater than 10 µM and the IC50 at 72 h [7] was greater than 10 µM. It also gave a melting point of 205.8 to 206.7 °C.
For COC1=C(Cn2cc(-c3ccccc3)nn2)C(=O)c2ccccc2C1=O [Compound 9, 2-Methoxy-3-((4-phenyl-1H-1,2,3-triazol-1-yl)methyl)naphthalene-1,4-dione], the IC50 [1, 8] was 5.39 µM, the IC50 [2, 9] was greater than 10 µM and the IC50 [3, 10] was greater than 10 µM. For the same compound, the IC50 [4, 11] was greater than 10 µM, the IC50 [6, 12] was greater than 10 µM and the IC50 at 72 h [7] was greater than 10 µM. It also gave a melting point of 103.8 to 104.7 °C.
“3-Bromo-2,2-dimethyl-4-(4-((p-tolylselanyl)methyl)-1H-1,2,3-triazol-1-yl)-3,4-dihydro-2H-benzo[h]-chromene-5,6-dione [Compound 21]” gave an IC50 ([1]; 72 h exposure) of 1 µM, an IC50 ([2]; 72 h exposure) greater than 8 µM and an IC50 ([3]; 72 h exposure) of 1.63 µM. The IC50 ([4]; 72 h exposure) was 1.49 µM, the IC50 ([6]; 72 h exposure) was 1.77 µM and the IC50 [5] was 1.28 µM.
CC1(C)OC2=C(C(=O)C(=O)c3ccccc32)C(n2cc(C[Se]c3ccc(F)cc3)nn2)C1Br (stereo not drawn) [Compound 18, 3-Bromo-4-(4-(((4-fluorophenyl)selanyl)methyl)-1H-1,2,3-triazol-1-yl)-2,2-dimethyl-3,4-dihydro-2H-benzo[h]chromene-5,6-dione] showed an IC50 [1, 8] of 0.59 µM, an IC50 [2, 9] of 0.37 µM and an IC50 [3, 10] of 1.48 µM. The IC50 [4, 11] was 1.32 µM, the IC50 [6, 12] was 1.06 µM and the IC50 at 72 h [7] was 0.36 µM. For the same compound, the melting point was 187.1 to 190 °C.
In the case of COC1=C(Cn2cc(-c3ccc(C)cc3)nn2)C(=O)c2ccccc2C1=O [Compound 12, 2-Methoxy-3-((4-(p-tolyl)-1H-1,2,3-triazol-1-yl)methyl)naphthalene-1,4-dione], the IC50 [1, 8] is reported as greater than 10 µM, the IC50 [2, 9] is reported as greater than 10 µM and the IC50 [3, 10] is reported as greater than 10 µM. It also gave an IC50 [4, 11] greater than 10 µM, an IC50 [6, 12] greater than 10 µM and an IC50 at 72 h [7] greater than 10 µM. For the same compound, the melting point was 123.1 to 124.5 °C.
For COC1=C(Cn2cc(C[Se]c3ccccc3)nn2)C(=O)c2ccccc2C1=O [Compound 14, 2-Methoxy-3-((4-((phenylselanyl)methyl)-1H-1,2,3-triazol-1-yl)methyl)naphthalene-1,4-dione], the IC50 [1, 8] was greater than 10 µM, the IC50 [2, 9] was greater than 10 µM and the IC50 [3, 10] was greater than 10 µM. For the same compound, the IC50 [4, 11] was greater than 10 µM, the IC50 [6, 12] was greater than 10 µM and the IC50 at 72 h [7] was greater than 10 µM. For the same compound, the melting point was 69 to 71 °C.
With COC1=C(Cn2cc(-c3ccc(OC)cc3)nn2)C(=O)c2ccccc2C1=O [Compound 11, 2-Methoxy-3-((4-(4-methoxyphenyl)-1H-1,2,3-triazol-1-yl)methyl)naphthalene-1,4-dione] the IC50 [1, 8] was 2.32 µM, the IC50 [2, 9] was greater than 10 µM and the IC50 [3, 10] was greater than 10 µM. For the same compound, the IC50 [4, 11] was greater than 10 µM, the IC50 [6, 12] was greater than 10 µM and the IC50 at 72 h [7] was greater than 10 µM. It also gave a melting point of 149.3 to 150.7 °C.
Compound COc1ccc([Se]C2=CC(=O)c3ccccc3C2=O)cc1 [Compound 3, 2-((4-Methoxyphenyl)selanyl)naphthalene-1,4-dione] has an IC50 [1, 8] of 4.68 µM, an IC50 [2, 9] greater than 10 µM and an IC50 [3, 10] greater than 10 µM. For the same compound, the IC50 [4, 11] was greater than 10 µM, the IC50 [6, 12] was greater than 10 µM and the IC50 at 72 h [7] was greater than 10 µM. The melting point was 140.7 to 148.3 °C.
